Patent US12622910B2, “Inhibitors of Bruton's tyrosine kinase and methods of their use” (Janssen Pharmaceutica NV, priority 2021, dated 2026)
Like-named read-outs stand apart in the source and are kept apart here.

Test: Phase 1 first-in-human study, plasma pharmacokinetics
Format: in vivo
Conditions: for Tmax / Cmax / AUC(0-t) / half-life / AUC(0-inf): plasma
Experimental: Safety, tolerability, PK, and BTKO were assessed for six doses of compound of Formula (III) oral solution (4, 12, 36, 100, 200, 400 mg) in participants under fasted conditions. The SAD part comprised 10 cohorts of 8 participants each (FIG. 1). In each cohort receiving compound of Formula (III) oral solution (Cohorts 1-9), 6 participants were randomized to receive compound of Formula (III) and 2 to receive placebo. All participants in Cohort 10 received compound of Formula (III) as an oral capsule. All 10 cohorts included 2 sentinel participants who were dosed ˜24 hours prior to the rest of the cohort. In cohorts receiving compound of Formula (III) oral solution, 1 sentinel participant received compound of Formula (III) and the other received placebo.
Six male escalating dose cohorts received a single oral dose of 4, 12, 36, 100, 200, 400 mg compound of Formula (III) or placebo solution under fasted conditions. Gender effects were assessed in 2 female cohorts whose participants received either a 36 or 100 mg dose of compound of Formula (III) or placebo as an oral solution under fasted conditions. Food effects were evaluated in a male cohort receiving compound of Formula (III) 100 mg or placebo as an oral solution after a high-fat breakfast.
Safety, tolerability, and PK of a solid dose formulation of compound of Formula (III) were assessed in an additional male cohort (Cohort 10) that received 3×35 mg (105 mg) of compound of Formula (III) in the fasted state. Since all the participants received the same dose of compound of Formula (III), this cohort was not blinded.
Safety, tolerability, PK, and BTKO following multiple compound of Formula (III) doses were evaluated in 3 dose escalation cohorts with a total of 18 participants (males: 9, females: 9) receiving active study drug. In each cohort, 3 males and 3 females were randomized to receive 36 mg once-daily (QD), 100 mg QD, or 200 mg QD compound of Formula (III) oral solution and 3 participants (males: 2; female: 1) to receive placebo. Two male participants in each cohort served as sentinel participants: one received compound of Formula (III) and other received placebo ˜48 hours prior to other participants in the cohort. All safety and tolerability data (through the follow-up visit), PK data (through at least 24 hours after last dose administration), and all available PD data were reviewed from each cohort before a decision was made to dose escalate.
Sample collection—For the PK assessment of compound of Formula (III), venous blood samples (2 to 4 mL each) were collected predose and at 15 min, 0.5, 1, 1.5, 2, 2.5, 3, 4, 6, 8, 12, 24, 36, 48, and 72 hours post-dose in Part 1. In Part 2, samples were collected predose and at 15 min, 0.5, 1, 1.5, 2, 2.5, 3, 4, 6, 8, 12 hours post-dose on day 1, predose and 1 hour post-dose on days 2-9, and predose and at 15 min, 0.5, 1, 1.5, 2, 2.5, 3, 4, 6, 8, 12, 24, 48, and 72 hours after the last dose on day 10. Plasma samples were analyzed to determine concentrations of compound of Formula (III) using a scientific validated, specific, and sensitive liquid chromatography-mass spectrometry (LC-MS/MS) method.
The PK analysis for the compound of Formula (III) samples was performed using a non-compartmental method with validated Phoenix® WinNonlin® (version 8.0, Certara L.P.).

[1] = 36 mg QD oral solution, fed, Day 10
[2] = 100 mg QD oral solution, fed, Day 10
[3] = 200 mg QD oral solution, fed, Day 10
[4] = female, human, po, 36 mg, single 36 mg oral solution, female fasted
[5] = female, human, po, 100 mg, single 100 mg oral solution, female fasted
[6] = male, human, po, 4 mg, single 4 mg oral solution, male fasted
[7] = male, human, po, 12 mg, single 12 mg oral solution, male fasted

C=CC(=O)N[C@H]1CCC[C@H]1NC(=O)c1sc2nccc3c2c1NC(=O)N3c1cnc(CC(C)C)cc1C (atropisomer, axis not shown) [compound of Formula (III), N-((1R,2S)-2-Acrylamidocyclopentyl)-5-(S)-(6-isobutyl-4-methylpyridin-3-yl)-4-oxo-4,5-dihydro-3H-1-thia-3,5,8-triazaacenaphthylene-2-carboxamide]
ARCmax [1]: 1.04
Cmin [1]: 0.552 ng/mL
ARCmax [2]: 0.968
Cmin [2]: 1.51 ng/mL
mean Cmax/Dose lower, capsule vs oral solution (105 mg capsule vs 100 mg solution): approximately 64%
Ae% dose (200 mg QD oral solution, fed, Day 1): 0.234
ARCmax [3]: 1.21
Ae% dose [3]: 0.234
CLR [3]: 0.186 L/h
Cmin [3]: 4.96 ng/mL
Tmax (both sexes, human, oral, Part 2, day 1, 36-200 mg QD, read-out: median tmax across doses): 1.25 to 1.77 h
Cmax (both sexes, human, po, 36 mg, 36 mg QD oral solution, fed, Day 1): 193 ng/mL
AUC(0-t) (both sexes, human, po, 36 mg, 36 mg QD oral solution, fed, Day 1, read-out: AUC0-24 h): 925 ng·h/mL
Tmax (both sexes, human, po, 36 mg, 36 mg QD oral solution, fed, Day 1, read-out: tmax, median (min-max)): 1.5 h
Cmax (both sexes, human, po, 36 mg, 36 mg QD oral solution, fed, Day 10): 199 ng/mL
AUC(0-t) (both sexes, human, po, 36 mg, 36 mg QD oral solution, fed, Day 10, read-out: AUC0-24 h): 889 ng·h/mL
half-life (both sexes, human, po, 36 mg, 36 mg QD oral solution, fed, Day 10, read-out: t1/2, dom (converted)): 1.5 h
half-life (both sexes, human, po, 36 mg, 36 mg QD oral solution, fed, Day 10, read-out: t1/2, λz (converted)): 4.9 h
Tmax (both sexes, human, po, 36 mg, 36 mg QD oral solution, fed, Day 10, read-out: tmax, median (min-max)): 2 h
Cmax (both sexes, human, po, 100 mg, 100 mg QD oral solution, fed, Day 1): 464 ng/mL
AUC(0-t) (both sexes, human, po, 100 mg, 100 mg QD oral solution, fed, Day 1, read-out: AUC0-24 h): 1820 ng·h/mL
Tmax (both sexes, human, po, 100 mg, 100 mg QD oral solution, fed, Day 1, read-out: tmax, median (min-max)): 1.25 h
Cmax (both sexes, human, po, 100 mg, 100 mg QD oral solution, fed, Day 10): 424 ng/mL
AUC(0-t) (both sexes, human, po, 100 mg, 100 mg QD oral solution, fed, Day 10, read-out: AUC0-24 h): 1690 ng·h/mL
half-life (both sexes, human, po, 100 mg, 100 mg QD oral solution, fed, Day 10, read-out: t1/2, dom (converted)): 1.8 h
half-life (both sexes, human, po, 100 mg, 100 mg QD oral solution, fed, Day 10, read-out: t1/2, λz (converted)): 9.6 h
Tmax (both sexes, human, po, 100 mg, 100 mg QD oral solution, fed, Day 10, read-out: tmax, median (min-max)): 1.53 h
Cmax (both sexes, human, po, 200 mg, 200 mg QD oral solution, fed, Day 1): 719 ng/mL
AUC(0-t) (both sexes, human, po, 200 mg, 200 mg QD oral solution, fed, Day 1, read-out: AUC0-24 h): 2560 ng·h/mL
Tmax (both sexes, human, po, 200 mg, 200 mg QD oral solution, fed, Day 1, read-out: tmax, median (min-max)): 1.77 h
Cmax (both sexes, human, po, 200 mg, 200 mg QD oral solution, fed, Day 10): 839 ng/mL
AUC(0-t) (both sexes, human, po, 200 mg, 200 mg QD oral solution, fed, Day 10, read-out: AUC0-24 h): 3160 ng·h/mL
half-life (both sexes, human, po, 200 mg, 200 mg QD oral solution, fed, Day 10, read-out: t1/2, dom (converted)): 1.9 h
half-life (both sexes, human, po, 200 mg, 200 mg QD oral solution, fed, Day 10, read-out: t1/2, λz (converted)): 23.1 h
Tmax (both sexes, human, po, 200 mg, 200 mg QD oral solution, fed, Day 10, read-out: tmax, median (min-max)): 2 h
CL renal (both sexes, human, urine and plasma, 200 mg QD oral solution, fed, Day 1): 3.1 mL/min
AUC(0-inf) [4]: 22.7 ng·h/mL
Cmax [4]: 233 ng/mL
AUC(0-t) (female, human, po, 36 mg, single 36 mg oral solution, female fasted, read-out: AUC0-24 h): 819 ng·h/mL
AUC(0-t) (female, human, po, 36 mg, single 36 mg oral solution, female fasted, read-out: AUClast): 816 ng·h/mL
half-life (female, human, po, 36 mg, single 36 mg oral solution, female fasted, read-out: t1/2, dom (converted)): 1.6 h
half-life (female, human, po, 36 mg, single 36 mg oral solution, female fasted, read-out: t1/2, λz (converted)): 1.9 h
Tmax (female, human, po, 36 mg, single 36 mg oral solution, female fasted, read-out: tmax, median (min-max)): 1 h
AUC(0-inf) [5]: 1340 ng·h/mL
Cmax [5]: 650 ng/mL
AUC(0-t) (female, human, po, 100 mg, single 100 mg oral solution, female fasted, read-out: AUC0-24 h): 1420 ng·h/mL
AUC(0-t) (female, human, po, 100 mg, single 100 mg oral solution, female fasted, read-out: AUClast): 1460 ng·h/mL
half-life (female, human, po, 100 mg, single 100 mg oral solution, female fasted, read-out: t1/2, dom (converted)): 1.6 h
half-life (female, human, po, 100 mg, single 100 mg oral solution, female fasted, read-out: t1/2, λz (converted)): 11.6 h
Tmax (female, human, po, 100 mg, single 100 mg oral solution, female fasted, read-out: tmax, median (min-max)): 0.5 h
AUC(0-inf) [6]: 155 ng·h/mL
Cmax [6]: 43.5 ng/mL
AUC(0-t) (male, human, po, 4 mg, single 4 mg oral solution, male fasted, read-out: AUC0-24 h): 157 ng·h/mL
AUC(0-t) (male, human, po, 4 mg, single 4 mg oral solution, male fasted, read-out: AUClast): 154 ng·h/mL
half-life (male, human, po, 4 mg, single 4 mg oral solution, male fasted, read-out: t1/2, dom (converted)): 1.6 h
half-life (male, human, po, 4 mg, single 4 mg oral solution, male fasted, read-out: t1/2, λz (converted)): 1.6 h
Tmax (male, human, po, 4 mg, single 4 mg oral solution, male fasted, read-out: tmax, median (min-max)): 1 h
AUC(0-inf) [7]: 317 ng·h/mL
Cmax [7]: 88 ng/mL
AUC(0-t) (male, human, po, 12 mg, single 12 mg oral solution, male fasted, read-out: AUC0-24 h): 319 ng·h/mL
AUC(0-t) (male, human, po, 12 mg, single 12 mg oral solution, male fasted, read-out: AUClast): 316 ng·h/mL
half-life (male, human, po, 12 mg, single 12 mg oral solution, male fasted, read-out: t1/2, dom (converted)): 1.5 h
